Legend:
Type in all cases: in vivo
Myzus persicae [1] = test: Myzus persicae oral test; details: 120 h, application rate 4 ppm, after 5 days, read-out: efficacy
Summary of the method: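 Compound formulation diluted with IPL41 insect medium (33%+15% sugar) and sealed under parafilm; mixed-population aphids feed through the membrane from a second plate. Mortality scored after 5 days as % efficacy (100% = all aphids killed, 0% = none).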

Musca domestica = Musca domestica test; details: application rate 100 ppm; adult houseflies, kill after 2 days
Protocol: Solvent: dimethyl sulfoxide To produce a suitable active ingredient formulation, 10 mg of active ingredient are mixed with 0.5 ml of dimethyl sulfoxide, and the concentrate is diluted with water to the desired concentration. Vessels containing a sponge treated with sugar solution and the desired concentration of active ingredient formulation are populated with 10 adult houseflies (Musca domestica). After 2 days, the kill in % is determined. 100% means that all of the flies have been killed; 0% means that none of the flies have been killed.

Myzus persicae [2] = test: Myzus persicae spray test; details: foliar, 120 h, application rate 100 g/ha, Chinese cabbage leaf discs, after 5 days, read-out: efficacy
Summary of the method: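 Chinese cabbage leaf discs infested with all aphid stages sprayed with compound formulated in emulsifier-containing water (1000 ppm emulsifier). Efficacy (% aphids killed; 100% = all killed) determined after 5 days.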

Ctenocephalides felis [3] = test: Ctenocephalides felis oral test; details: 48 h, application rate 100 ppm in citrated cattle blood, kill after 2 days, read-out: efficacy
Protocol: Solvent: dimethyl sulfoxide To produce a suitable active ingredient formulation, 10 mg of active ingredient are mixed with 0.5 ml of dimethyl sulfoxide. Dilution with citrated cattle blood gives the desired concentration. About 20 unfed adult cat fleas (Ctenocephalides felis) are placed into a chamber which is closed at the top and bottom with gauze. A metal cylinder whose bottom end is closed with parafilm is placed onto the chamber. The cylinder contains the blood/active ingredient formulation, which can be imbibed by the fleas through the parafilm membrane. After 2 days, the kill in % is determined. 100% means that all of the fleas have been killed; 0% means that none of the fleas have been killed.

Lucilia cuprina = Lucilia cuprina test; details: 48 h, application rate 100 ppm, L1 larvae, kill after 2 days, read-out: efficacy
Protocol: Solvent: dimethyl sulfoxide To produce a suitable active ingredient formulation, 10 mg of active ingredient are mixed with 0.5 ml of dimethyl sulfoxide, and the concentrate is diluted with water to the desired concentration. About 20 L1 larvae of the Australian sheep blowfly (Lucilia cuprina) are transferred into a test vessel containing minced horsemeat and the active ingredient formulation of the desired concentration. After 2 days, the kill in % is determined. 100% means that all the larvae have been killed; 0% means that no larvae have been killed.

Phaedon cochleariae = Phaedon cochleariae spray test; details: 168 h, application rate 100 g/ha, larvae, after 7 days, read-out: efficacy
Summary of the method: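 Chinese cabbage leaf discs sprayed with compound formulated in solvent and water containing 1000 ppm emulsifier. Once dry, discs were populated with mustard beetle larvae. Percent kill scored after 7 days, 100% meaning all larvae dead and 0% none.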

Spodoptera frugiperda = Spodoptera frugiperda spray test; details: foliar, 168 h, application rate 100 g/ha, maize leaf discs, caterpillars, after 7 days, read-out: efficacy
Summary of the method: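 Maize leaf discs sprayed with compound formulated in solvent plus water with 1000 ppm emulsifier, dried, then infested with fall armyworm caterpillars. Mortality scored after 7 days as % efficacy (100% = all caterpillars killed, 0% = none).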

Ctenocephalides felis [4] = test: Ctenocephalides felis in vitro contact test with adult cat fleas; details: application rate 5 μg/cm^2 (=500 g/ha), adult cat fleas dead or moribund after 48 h, read-out: efficacy
Protocol: For the coating of the test tubes, 9 mg of active ingredient are first dissolved in 1 ml of acetone p.a. and then diluted to the desired concentration with acetone p.a. 250 μl of the solution are distributed homogeneously on the inner walls and the base of a 25 ml glass tube by turning and rocking on an orbital shaker (rocking rotation at 30 rpm for 2 h). With 900 ppm of active ingredient solution and internal surface area 44.7 cm^2, given homogeneous distribution, an area-based dose of 5 μg/cm^2 is achieved. After the solvent has evaporated off, the tubes are populated with 5-10 adult cat fleas (Ctenocephalides felis), sealed with a perforated plastic lid and incubated in a horizontal position at room temperature and ambient humidity. After 48 h, efficacy is determined. To this end, the tubes are stood upright and the fleas are knocked to the base of the tube. Fleas which remain motionless at the base or move in an uncoordinated manner are considered to be dead or moribund. […] 100% efficacy means that all the fleas were dead or moribund. 0% efficacy means that no fleas were harmed.

Boophilus microplus = Boophilus microplus injection test; details: application rate 20 μg/animal, injected; laying of fertile eggs assessed after 7 days
Protocol: Solvent: dimethyl sulfoxide To produce a suitable active ingredient formulation, 10 mg of active ingredient are mixed with 0.5 ml of solvent and the concentrate is diluted to the desired concentration with solvent. 1 μl of the active ingredient solution is injected into the abdomen of 5 engorged adult female cattle ticks (Boophilus microplus). The animals are transferred into dishes and kept in a climate-controlled room. Efficacy is assessed after 7 days by laying of fertile eggs. Eggs which are not visibly fertile are stored in a climate-controlled cabinet until the larvae hatch after about 42 days. An efficacy of 100% means that none of the ticks has laid any fertile eggs; 0% means that all the eggs are fertile.

Tetranychus urticae = Tetranychus urticae spray test, OP-resistant; details: foliar, 144 h, bean leaf discs, after 6 days, read-out: efficacy
Protocol: [table] To produce a suitable active ingredient formulation, 1 part by weight of active ingredient is dissolved with the specified parts by weight of solvent and made up to the desired concentration with water containing an emulsifier concentration of 1000 ppm. To produce further test concentrations, the formulation is diluted with emulsifier-containing water. Discs of bean leaves (Phaseolus vulgaris) infested with all stages of the greenhouse red spider mite (Tetranychus urticae) are sprayed with an active ingredient formulation of the desired concentration. After 6 days, the efficacy in % is determined. 100% means that all the spider mites have been killed; 0% means that no spider mites have been killed.

Row | SMILES | pest or weed control at 4 ppm (Myzus persicae [1]) [%] | efficacy (Musca domestica) [%] | pest or weed control at 100 g/ha (Myzus persicae [2]) [%] | pest or weed control at 100 ppm (Ctenocephalides felis [3]) [%] | pest or weed control at 100 ppm (Lucilia cuprina) [%] | pest or weed control at 100 g/ha (Phaedon cochleariae) [%] | pest or weed control at 100 g/ha (Spodoptera frugiperda) [%] | pest or weed control at 5 µg/cm2, 500 g/ha (Ctenocephalides felis [4]) [%] | efficacy (Boophilus microplus) [%] | pest or weed control at 20 g/ha (Tetranychus urticae; application rate 20 g/ha) [%] | pest or weed control at 100 g/ha (Tetranychus urticae; application rate 100 g/ha) [%]
1 | CCS(=O)(=O)c1c(-c2nc3cc(C(F)(F)F)ncc3n2C)nc(-c2ccc(Cl)cc2)n1C [Example I-005] | 100 | 100 | 90 | 100 | 100 | 100 | 100 | 100 |  |  | 
2 | CCn1c(-c2ccccc2)nc(-c2nc3cc(C(F)(F)F)ncc3n2C)c1S(=O)(=O)CC [Example I-009] | 100 | 80 | 90 | 95 | 100 |  |  | 100 |  |  | 
3 | CCS(=O)(=O)c1c(-c2nc3cc(C(F)(F)F)ncc3n2C)nc(-c2cccc(Cl)n2)n1C [Example I-014, 2-[2-(6-Chloropyridin-2-yl)-5-(ethylsulfonyl)-1-methyl-1H-imidazol-4-yl]-3-methyl-6-(trifluoromethyl)-3H-imidazo[4,5-c]pyridine] | 100 | 80 | 100 | 100 | 100 | 100 | 100 | 100 |  |  | 
4 | CCS(=O)(=O)c1c(-c2nc3cc(C(F)(F)F)ncc3n2C)nc(-c2cccnc2)n1C [Example I-016] | 100 |  | 100 |  | 100 |  |  |  | 90 |  | 
5 | CCS(=O)(=O)c1c(-c2nc3cc(C(F)(F)F)ncc3n2C)nc(-c2cncc(F)c2)n1C [Example I-018] | 100 | 80 | 100 | 100 | 100 | 100 | 83 | 100 |  |  | 
6 | CCS(=O)(=O)c1c(-c2nc3cc(C(F)(F)F)ncc3n2C)nc(-c2ccc(F)nc2)n1C [Example I-019, 2-[5-(Ethylsulfonyl)-2-(6-fluoropyridin-3-yl)-1-methyl-1H-imidazol-4-yl]-3-methyl-6-(trifluoromethyl)-3H-imidazo[4,5-c]pyridine] | 100 | 100 | 100 | 95 | 100 | 100 | 100 | 100 |  |  | 
7 | CCS(=O)(=O)c1c(-c2nc3cc(C(F)(F)F)ncc3n2C)nc(-c2cc(Cl)cs2)n1C [Example I-033] | 100 | 90 | 90 | 100 | 100 |  | 100 |  |  |  | 
8 | CCNC(=O)c1nc(-c2nc3cc(C(F)(F)F)ncc3n2C)c(S(=O)(=O)CC)n1C [Example I-041] | 100 |  | 90 |  |  | 100 |  |  | 100 |  | 
9 | CCS(=O)(=O)c1c(-c2nc3cc(C(F)(F)F)ncc3n2C)nc(-c2ccn[nH]2)n1C [Example I-049] | 100 | 80 | 90 | 80 | 100 | 100 |  |  |  | 90 | 90

From patent US11083199B2, “Heterocycle derivatives as pesticides” (Bayer Aktiengesellschaft, priority 2017, dated 2021)
